According to publication PMC12348470, “Amino Acid Substitutions in Bacteriocin Lactolisterin BU Reveal Functional Domains Involved in Biological Activity Against Staphylococcus aureus” (Molecules, 2025):
Where “and” joins values, the source holds several entries; their conditions need not be identical. Identical values can stand only once. Like-named read-outs stand apart in the source and are kept apart here. Ends that are not written are not given here.

Key:
Danio rerio embryos = assay: Zebrafish embryo toxicity (OECD TG 236); type: in vivo; conditions: for LC50 (zebrafish embryos): exposure to 120 hpf, 28 °C, 10 embryos/well, triplicate, LL.2 model, mean ± SD, n = 3
Description: Embryos were exposed to six different increasing concentrations of each peptide for 5 consecutive days (120 hfp) and examined for survival and signs of toxicity, following toxicological endpoints (Table S1).
The toxicity of synthetic peptide variants was assessed in vivo using Danio rerio embryos, in accordance with OECD Test Guideline 236 (Fish Embryo Acute Toxicity Test) and the European Directive 2010/63/EU on the protection of animals used for scientific purposes, according to Aleksic et al.. All procedures were conducted at the Institute of Molecular Genetics and Genetic Engineering, University of Belgrade.
Wild-type adult zebrafish were maintained under standard laboratory conditions (28 °C; 14:10 h light–dark cycle). Embryos were obtained via pairwise mating and collected within 1 h post-fertilization (hpf). At 5 hpf, the embryos were randomly distributed into 24-well plates (10 embryos/well, 1 mL embryo medium per well) containing embryo water (0.2 mg/mL Instant Ocean® salts in distilled water). Peptides were tested at five concentrations (e.g., 1.56–25 µg/mL) in triplicate. Peptide solvent was used as a negative control. The plates were incubated at 28 °C without media replacement.
Embryonic development was monitored using an inverted microscope (Zeiss Stemi 508; Carl Zeiss Microscopy GmbH, Jena, Germany). Lethal endpoints and sublethal malformations were scored according to OECD guidelines (Table S1). At 120 hpf, the embryos were anesthetized using 0.1% tricaine, photographed, and euthanized via freezing at −20 °C for 24 h.
LC50 values were estimated using the log–logistic binomial model (LL.2) from the drc package in R.
Dose–response curves and LC50 values were estimated using the log–logistic binomial model (LL.2) from the drc package in R [79] (version 2025.05.0). Mortality data were modeled as proportions of dead individuals relative to total individuals tested, and 95% confidence intervals for LC50 were calculated using the delta method.

spa = conditions: half MIC, 16–18 h, 37 °C, normalised to gmk, duplicate
From the text: (§1) Six virulence-related genes were selected (agrA, clfA, icaR, lukSPV, spa, and hla) to capture a representative profile of quorum sensing regulation (agrA), adhesion (clfA), biofilm repression (icaR), immune evasion (spa), and cytolytic toxin production (lukSPV and hla), providing an exploratory view of how peptide treatment influences the distinct profile of S. aureus pathogenicity.
(§2) The effect of sub-inhibitory peptide concentrations on S. aureus ATCC 25923 virulence gene expression was evaluated using quantitative real-time PCR (RT-qPCR). […] Untreated bacterial cultures in corresponding media served as controls.
(§3) Total RNA was extracted using the RNeasy Mini Kit (QIAGEN GmbH, Hilden, Germany). Samples were treated with Dnase I (Thermo Fisher Scientific) to remove genomic DNA contamination. RNA concentration and purity were determined using a NanoDrop spectrophotometer (A260/A280 ratio 1.9–2.1).
(§4) Complementary DNA (cDNA) synthesis was performed using […] of total RNA and the RevertAid RT Reverse Transcription Kit (Thermo Fisher Scientific) with random hexamer primers, according to the manufacturer’s instructions. Quantitative PCR was performed using FastGen 2x IC Green qPCR Universal (Nippon Genetics) on a LineGene 9600 Plus Real Time thermocycler (Bioer Technology Co., Ltd., Hangzhou, China). Primer sequences (Table S3) for the virulence-related genes agrA, clfA, hla, icaR, lukS-PV, and spa were used. The housekeeping gene gmk (guanylate kinase) was used for normalization.
(§5) Primer efficiency (90–110%) and specificity were confirmed by melt curve analysis. Relative expression levels were calculated using the ΔΔCt method, as reported by Livak et Schmittgen, comparing treated samples to their corresponding untreated controls in each medium. A log2 fold change ≥1 or ≤−1 was considered biologically significant. All experiments were performed in duplicate.

agrA = conditions: half MIC, 16–18 h, 37 °C, normalised to gmk, duplicate
From the text: as §1, §2, §3, §4, §5

clfA = conditions: half MIC, 16–18 h, 37 °C, normalised to gmk, duplicate
From the text: as §1, §2, §3, §4, §5

Caco-2 cells = tested on: Caco-2 cells
Description: Caco-2 cells were used in the toxicity assay to model the human intestinal epithelium, as they closely mimic the morphology and function of enterocytes. This makes them a relevant in vitro system for evaluating the potential cytotoxic effects of bacteriocins upon oral exposure or gastrointestinal application.
The cytotoxic effects of peptides were evaluated on human colorectal adenocarcinoma Caco-2 cells (ATCC HTB-37). The cells were cultured in Dulbecco’s Modified Eagle Medium (DMEM, high glucose; Gibco, Thermo Fisher Scientific) supplemented with 10% fetal bovine serum (FBS) and 1% penicillin–streptomycin. The cells were maintained at 37 °C in a humidified incubator with 5% CO2 and subcultured twice weekly, according to Popovic et al..
Cytotoxic effects of peptides on Caco-2 cells were assessed using a lactate dehydrogenase (LDH) release assay according to the manufacturer’s protocol (Lactate Dehydrogenase Cytotoxicity Assay Kit (Thermo Fisher Scientific, Waltham, MA, USA)). The Caco-2 cells were seeded in 96-well flat-bottom plates at a density of 2 × 10^4 cells per well and allowed to reach confluency over 48 h at 37 °C and 5% CO2.
The cells were then incubated for 24 h. Untreated cells (incubated with medium only) served as a negative control, and cells treated with LDH Lysis buffer were used as a positive control.
Following peptide treatment, 50 µL of cell culture supernatant was transferred from each well into a new 96-well plate. LDH reaction mixture (50 µL) was added to each well and incubated at room temperature for 30 min in the dark. The absorbance was measured at 490 nm using a microplate reader.
Cytotoxicity (%) was calculated using the following formula: Cytotoxicity (%) = Asample − Anegative/Apositive − Anegative × 100
The assay was performed in triplicate.

S. aureus ATCC 25923 = assay: Spot-on-the-lawn antimicrobial screening; type: cell-based, Staphylococcus aureus; conditions: 5 µL spots at 1000, 500, 250, 125 and 62.5 µg/mL on LB soft agar lawn; overnight, 37 °C
Description: The antimicrobial activity screening assay of twelve chemically synthesized peptides was evaluated using a spot-on-the-lawn assay against S. aureus ATCC 25923.
S. aureus ATCC 25923 was grown overnight in LB broth, adjusted to 0.5 McFarland (~1 × 10^8 CFU/mL), and mixed 1:100 into molten soft agar (0.7% agar in LB). Five milliliters of this suspension was overlaid onto LB agar plates and allowed to solidify.
Peptide stock solutions (1 mg/mL) were serially diluted in sterile water, and 5 µL of each dilution was carefully spotted onto the surface of the inoculated agar. The plates were dried under a laminar flow hood for 15–20 min and incubated overnight at 37 °C. Zones were observed, and their size and clarity were compared.

Sequence	concentration at which yolk sac retention was observed (Danio rerio embryos; 120 hpf) [ng/mL]	concentration causing general growth delay (Danio rerio embryos; 120 hpf) [ng/mL]	concentration causing hemorrhaging (Danio rerio embryos; 120 hpf) [ng/mL]	concentration causing pericardial edema (Danio rerio embryos; 120 hpf) [ng/mL]	concentration inducing lethal egg coagulation (Danio rerio embryos; 120 hpf) [ng/mL]	embryo mortality, in words (Danio rerio embryos; 120 h dose–response)	spa expression, log2 fold-change vs untreated control (spa; FBS) [log2 fold change]	spa expression, log2 fold-change vs untreated control (spa; LB medium)	agrA expression, log2 fold-change vs untreated control (agrA; FBS) [log2 fold change]	agrA expression, log2 fold-change vs untreated control (agrA; LB medium) [log2 fold change]	clfA expression, log2 fold-change vs untreated control (clfA; FBS) [log2 fold change]	clfA expression, log2 fold-change vs untreated control (clfA; LB medium) [log2 fold change]	TI (LC50/MIC), Caco-2 (Caco-2 cells)	zones of inhibition, spot-on-the-lawn assay (S. aureus ATCC 25923)	LC50 (zebrafish embryos) (Danio rerio embryos) [µg/mL]
MWGRILGTVAKYAPKAVSWAWQHKWELINMGDLAFRYIQRIWG [Peptide G13A]	1560	1560	1560	1560	1560	nearly complete mortality at concentrations ≥3.1 µg/mL	1.69	-0.32 log2 fold change and −0.33 log2 fold change	0.82	-0.40	0.64	-0.19	1.20	comparable to the wild-type LBU peptide	–
MWARILGTVAKYGPKAVSWAWQHKWELINMGDLAFRYIQRIWG [Peptide G3A]	6250	–	–	–	–	–	1.43	2.16 log2 fold change	-0.47	-0.93	-1.55	0.76	7.03	comparable to the wild-type LBU peptide	5.69
MWGRILATVAKYGPKAVSWAWQHKWELINMGDLAFRYIQRIWG [Peptide G7A]	3130	–	–	–	6250	–	-0.27	0.37 log2 fold change	0.61	-0.32	-0.69	-0.59	5.11	comparable to the wild-type LBU peptide	2.98
